Target: T1, human TLR7 (Homo sapiens, UniProt Q9NYK1)
T1 construct: host or cells: HEK293 (HEK-Blue hTLR7)
T1 sequence (Q9NYK1 27-1049): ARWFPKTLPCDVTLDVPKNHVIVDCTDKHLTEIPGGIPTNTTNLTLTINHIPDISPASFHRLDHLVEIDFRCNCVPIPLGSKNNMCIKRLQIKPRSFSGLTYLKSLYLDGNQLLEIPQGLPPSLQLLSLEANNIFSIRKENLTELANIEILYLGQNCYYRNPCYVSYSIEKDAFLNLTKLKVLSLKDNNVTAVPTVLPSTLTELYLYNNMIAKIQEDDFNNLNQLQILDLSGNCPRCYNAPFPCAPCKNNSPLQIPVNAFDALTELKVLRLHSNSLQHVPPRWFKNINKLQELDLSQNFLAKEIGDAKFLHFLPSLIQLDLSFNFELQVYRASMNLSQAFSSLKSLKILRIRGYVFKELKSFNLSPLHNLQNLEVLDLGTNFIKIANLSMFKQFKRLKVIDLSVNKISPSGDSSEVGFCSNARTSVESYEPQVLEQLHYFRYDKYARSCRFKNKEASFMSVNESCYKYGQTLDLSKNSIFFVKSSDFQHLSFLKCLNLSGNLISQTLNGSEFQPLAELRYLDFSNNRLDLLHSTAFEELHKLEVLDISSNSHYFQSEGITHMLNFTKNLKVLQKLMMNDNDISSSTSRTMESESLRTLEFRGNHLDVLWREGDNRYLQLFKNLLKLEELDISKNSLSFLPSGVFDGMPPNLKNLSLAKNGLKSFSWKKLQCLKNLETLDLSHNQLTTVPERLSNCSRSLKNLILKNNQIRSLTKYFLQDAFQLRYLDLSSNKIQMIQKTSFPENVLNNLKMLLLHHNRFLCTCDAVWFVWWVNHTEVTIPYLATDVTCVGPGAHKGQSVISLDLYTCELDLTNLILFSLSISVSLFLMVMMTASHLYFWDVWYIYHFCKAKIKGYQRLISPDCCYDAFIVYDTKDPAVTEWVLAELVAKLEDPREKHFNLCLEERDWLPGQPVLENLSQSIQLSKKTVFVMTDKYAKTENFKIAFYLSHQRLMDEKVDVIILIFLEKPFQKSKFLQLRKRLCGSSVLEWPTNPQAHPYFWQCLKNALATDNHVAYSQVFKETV
Experiment: HEK293-Blue hTLR7 Reporter Assay (QUANTI-BLUE, SEAP readout)
Format: cell-based
Settings: HEK-Blue-hTLR7 cells, 24 hrs treatment, Table 1, B1-B232
Protocol: HEK293-Blue hTLR7 Reporter Assay: HEK-Blue-hTLR7 cell line (Invivogen, Cat. No. hkb-htlr7) was designed so that the expression of the secreted embryonic alkaline phosphatase (SEAP) was induced by activating NF-κ and AP-1 via stimulating human TLR7 with TLR7 agonists. HEK-Blue-hTLR7 cells were seeded at a density of 4×10^4 cells/well in a volume of 180 μL in a 96-well plate in DMEM (Cat. No. 11965-092) supplemented with 10% (v/v) heat-inactivated fetal bovine serum (FBS) (Gibco, 10099-1441), 100 U/ml penicillin and 100 μg/ml streptomycin (Gibco, 15140122) containing 50 U/mL penicillin, […] and 10% (v/v) heat-inactivated fetal bovine serum. The cells were settled for 5 hrs, then treated with increasing amounts of tested compounds at 37° C. for 24 hrs. Then 20 μL of the supernatant from each well was incubated with 180 μL Quanti-blue substrate solution at 37° C. for 10-30 mins before the activity of the SEAP was determined at 620-655 nm using a spectrophotometer. The EC50 value for each compound was calculated with GraphPad Prism software using the sigmoidal dose-response function.

In the case of `CCCC(Nc1nc(N)c2ncc(Cc3cnc(N4CCNCC4)c(C)c3)n2n1)C(F)(F)F` (centres unmarked) [Compound B227, 7-((5-methyl-6-(piperazin-1-yl)pyridin-3-yl)methyl)-N2-(1,1,1-trifluoropentan-2-yl)imidazo[2,1-f][1,2,4]triazine-2,4-diamine], the EC50 is reported as 25 nM.
Work on `CCCCOc1nc(N)c2ncc(Cc3ccc(N4CCNCC4)c(OCC)c3)n2n1` [Compound B26, 2-butoxy-7-(3-ethoxy-4-(piperazin-1-yl)benzyl)imidazo[2,1-f][1,2,4]triazin-4-amine] yielded an EC50 of 295 nM.
Compound `CCCCCc1nc(N)c2ncc(Cc3cnc(N4CCNCC4)c(C)c3)n2n1` [Compound B180, 7-((5-methyl-6-(piperazin-1-yl)pyridin-3-yl)methyl)-2-pentylimidazo[2,1-f][1,2,4]triazin-4-amine] has an EC50 of 270 nM.
`COCCOc1nc(N)c2ncc(Cc3cnc(N4CCNCC4)c(Cl)c3)n2n1` [Compound B5, 7-((5-chloro-6-(piperazin-1-yl)pyridin-3-yl)methyl)-2-(2-methoxyethoxy)imidazo[2,1-f][1,2,4]triazin-4-amine] was tested, and the EC50 was 1230 nM.
`Cc1cc(Cc2cnc3c(N)nc(OCC4CCCCC4)nn23)cnc1N1CCNCC1` [Compound B192, 2-(cyclohexylmethoxy)-7-((5-methyl-6-(piperazin-1-yl)pyridin-3-yl)methyl)imidazo[2,1-f][1,2,4]triazin-4-amine] showed an EC50 of 2680 nM.
In the case of `CCC(C)Oc1nc(N)c2ncc(Cc3cnc(N4CCN(C(=O)CN(C)C)CC4)c(C)c3)n2n1` (centres unmarked) [Compound B155, 1-(4-(5-((4-amino-2-(sec-butoxy)imidazo[2,1-f][1,2,4]triazin-7-yl)methyl)-3-methylpyridin-2-yl)piperazin-1-yl)-2-(dimethylamino)ethan-1-one], the EC50 is reported as 8.3 nM.
For `CCCCOc1nc(N)c2ncc(Cc3cnc(N4CCN[C@H](C)C4)c(C)c3)n2n1` [Compound B97, (R)-2-butoxy-7-((5-methyl-6-(3-methylpiperazin-1-yl)pyridin-3-yl)methyl)imidazo[2,1-f][1,2,4]triazin-4-amine], the EC50 was 163 nM.
In the case of `CCCCOc1nc(N)c2ncc(Cc3cnc(N4CCC(CCN(C)C)CC4)c(C)c3)n2n1` [Compound B110, 2-butoxy-7-((6-(4-(2-(dimethylamino)ethyl)piperidin-1-yl)-5-methylpyridin-3-yl)methyl)imidazo[2,1-f][1,2,4]triazin-4-amine], the EC50 is reported as 43 nM.
`CCC(CC)Nc1nc(N)c2ncc(Cc3cnc(N4CCN(C(=O)CN(C)C)CC4)c(C)c3)n2n1` [Compound B211, 1-(4-(5-((4-amino-2-(pentan-3-ylamino)imidazo[2,1-f][1,2,4]triazin-7-yl)methyl)-3-methylpyridin-2-yl)piperazin-1-yl)-2-(dimethylamino)ethan-1-one] was tested, and the EC50 was 7.7 nM.
In the case of `CCCCOc1nc(N)c2ncc(Cc3ccc(N4CCN[C@H](C)C4)c(C)c3)n2n1` [Compound B98, (R)-2-butoxy-7-(3-methyl-4-(3-methylpiperazin-1-yl)benzyl)imidazo[2,1-f][1,2,4]triazin-4-amine], the EC50 is reported as 1130 nM.
`CCCC(CCO)Oc1nc(N)c2ncc(Cc3cnc(N4CCN(C(=O)CNC)CC4)c(C)c3)n2n1` (centres unmarked) [Compound B218, 1-(4-(5-((4-amino-2-((1-hydroxyhexan-3-yl)oxy)imidazo[2,1-f][1,2,4]triazin-7-yl)methyl)-3-methylpyridin-2-yl)piperazin-1-yl)-2-(methylamino)ethan-1-one] showed an EC50 of 46 nM.
For `CCCCOc1nc(N)c2ncc(Cc3cnc(N4CCC5(CCCC5)CC4)c(C)c3)n2n1` [Compound B83, 2-butoxy-7-((5-methyl-6-(8-azaspiro[4.5]decan-8-yl)pyridin-3-yl)methyl)imidazo[2,1-f][1,2,4]triazin-4-amine], the EC50 was greater than 10000 nM.
`CCCC(C)Nc1nc(N)c2ncc(Cc3cnc(N4CCNCC4)c(C)c3)n2n1` (centres unmarked) [Compound B150, 7-((5-methyl-6-(piperazin-1-yl)pyridin-3-yl)methyl)-N2-(pentan-2-yl)imidazo[2,1-f][1,2,4]triazine-2,4-diamine] gave an EC50 of 2.5 nM.
“2-butoxy-7-((5-methyl-6-(2,7-diazaspiro[3.5]nonan-7-yl)pyridin-3-yl)methyl)imidazo[2,1-f][1,2,4]triazin-4-amine [Compound B86]” gave an EC50 of 202 nM.
`CCC[C@@H](CCO)Nc1nc(N)c2ncc(Cc3cnc(N4CCC(CNC)CC4)c(C)c3)n2n1` [Compound B228, (S)-3-((4-amino-7-((5-methyl-6-(4-((methylamino)methyl)piperidin-1-yl)pyridin-3-yl)methyl)imidazo[2,1-f][1,2,4]triazin-2-yl)amino)hexan-1-ol] was tested, and the EC50 was 37 nM.
With `CCCCOc1nc(N)c2ncc(Cc3cnc(N4CC(C)NC(C)C4)c(C)c3)n2n1` (centres unmarked) [Compound B55, 2-butoxy-7-((6-(3,5-dimethylpiperazin-1-yl)-5-methylpyridin-3-yl)methyl)imidazo[2,1-f][1,2,4]triazin-4-amine] the EC50 was 196 nM.
With `Cc1cc(Cc2cnc3c(N)nc(OC(C)C)nn23)cnc1N1CCNCC1` [Compound B66, 2-isopropoxy-7-((5-methyl-6-(piperazin-1-yl)pyridin-3-yl)methyl)imidazo[2,1-f][1,2,4]triazin-4-amine] the EC50 was 146 nM.
With `Cc1cc(Cc2cnc3c(N)nc(OCCc4ccccc4)nn23)cnc1N1CCNCC1` [Compound B30, 7-((5-methyl-6-(piperazin-1-yl)pyridin-3-yl)methyl)-2-phenethoxyimidazo[2,1-f][1,2,4]triazin-4-amine] the EC50 was greater than 10000 nM.
With `CCCCOc1nc(N)c2ncc(Cc3ccc(C4CCN(C(=O)CN(C)C)CC4)cc3)n2n1` [Compound B14, 1-(4-(4-((4-amino-2-butoxyimidazo[2,1-f][1,2,4]triazin-7-yl)methyl)phenyl)piperidin-1-yl)-2-(dimethylamino)ethan-1-one] the EC50 was 96 nM.
`CCCCc1nc(N)c2ncc(Cc3cnc(N4CCNCC4)c(C)c3)n2n1` [Compound B141, 2-butyl-7-((5-methyl-6-(piperazin-1-yl)pyridin-3-yl)methyl)imidazo[2,1-f][1,2,4]triazin-4-amine] showed an EC50 of 154 nM.
In the case of `CNCC(C)Oc1nc(N)c2ncc(Cc3cnc(N4CCNCC4)c(C)c3)n2n1` (centres unmarked) [Compound B206, 7-((5-methyl-6-(piperazin-1-yl)pyridin-3-yl)methyl)-2-((1-(methylamino)propan-2-yl)oxy)imidazo[2,1-f][1,2,4]triazin-4-amine], the EC50 is reported as 5610 nM.
For `CCCCOc1nc(N)c2ncc(Cc3cnc(N4CCN(CCNC)CC4)c(C)c3)n2n1` [Compound B75, 2-butoxy-7-((5-methyl-6-(4-(2-(methylamino)ethyl)piperazin-1-yl)pyridin-3-yl)methyl)imidazo[2,1-f][1,2,4]triazin-4-amine], the EC50 was 121 nM.
Compound `CCC(CC)Nc1nc(N)c2ncc(Cc3cnc(N4CCNCC4)c(C)c3)n2n1` [Compound B210, 7-((5-methyl-6-(piperazin-1-yl)pyridin-3-yl)methyl)-N2-(pentan-3-yl)imidazo[2,1-f][1,2,4]triazine-2,4-diamine] has an EC50 of 12 nM.
Compound `CCCCOc1nc(N)c2ncc(Cc3cnc(N4CCN(C(=O)CN(C)C)CC4)c(C)c3)n2n1` [Compound B12, 1-(4-(5-((4-amino-2-butoxyimidazo[2,1-f][1,2,4]triazin-7-yl)methyl)-3-methylpyridin-2-yl)piperazin-1-yl)-2-(dimethylamino)ethan-1-one] has an EC50 of 44 nM.
In the case of `CCOc1nc(N)c2ncc(Cc3cnc(N4CCNCC4)c(C)c3)n2n1` [Compound B63, 2-ethoxy-7-((5-methyl-6-(piperazin-1-yl)pyridin-3-yl)methyl)imidazo[2,1-f][1,2,4]triazin-4-amine], the EC50 is reported as 900 nM.
Work on `CC[C@H](C)Oc1nc(N)c2ncc(Cc3cnc(N4CCNCC4)c(C)c3)n2n1` [Compound B158, (S)-2-(sec-butoxy)-7-((5-methyl-6-(piperazin-1-yl)pyridin-3-yl)methyl)imidazo[2,1-f][1,2,4]triazin-4-amine] yielded an EC50 of 6.5 nM.
